# Data as given in ChEMBL document CHEMBL5104155, “Novel etodolac derivatives as eukaryotic elongation factor 2 kinase (eEF2K) inhibitors for targeted cancer therapy” (RSC Med Chem, 2022).
# The source made the active and inactive calls. The rule behind the calls is not given here.
# Tests used:
# Format in all cases: cell-based
# [1] = molecular target: T1, Eukaryotic elongation factor 2 kinase (Homo sapiens) (UniProt O00418); test: Inhibition of eEF2K in human MDA-MB-231 cells assessed as decrease in phosphorylation of eEF2 at Thr56 residue at 20 uM incubated for 2 hrs by western blot analysis
# T1 sequence (whole entry): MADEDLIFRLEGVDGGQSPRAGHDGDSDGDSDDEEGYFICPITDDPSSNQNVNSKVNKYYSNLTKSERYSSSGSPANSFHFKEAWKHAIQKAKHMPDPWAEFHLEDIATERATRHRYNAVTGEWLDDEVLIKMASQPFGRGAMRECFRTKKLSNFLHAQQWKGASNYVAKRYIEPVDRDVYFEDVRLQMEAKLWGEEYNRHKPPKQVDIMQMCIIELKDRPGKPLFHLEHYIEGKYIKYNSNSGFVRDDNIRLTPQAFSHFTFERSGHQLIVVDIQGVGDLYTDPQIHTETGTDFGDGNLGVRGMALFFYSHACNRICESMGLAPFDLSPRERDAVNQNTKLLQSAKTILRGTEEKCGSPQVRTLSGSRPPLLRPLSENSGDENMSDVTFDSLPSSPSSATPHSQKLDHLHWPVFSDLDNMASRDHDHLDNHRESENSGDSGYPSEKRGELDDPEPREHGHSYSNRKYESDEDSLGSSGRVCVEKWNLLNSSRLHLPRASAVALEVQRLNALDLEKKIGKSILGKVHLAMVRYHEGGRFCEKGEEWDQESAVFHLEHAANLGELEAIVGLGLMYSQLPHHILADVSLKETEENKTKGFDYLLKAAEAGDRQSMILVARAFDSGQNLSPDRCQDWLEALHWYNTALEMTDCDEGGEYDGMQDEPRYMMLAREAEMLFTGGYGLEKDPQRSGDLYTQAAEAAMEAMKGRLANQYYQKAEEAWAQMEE
# [2] = molecular target: T1, Eukaryotic elongation factor 2 kinase (Homo sapiens); test: Inhibition of eEF2K in human MDA-MB-231 cells assessed as decrease in phosphorylation of eEF2 at Thr56 residue at 2.5 uM incubated for 2 hrs by western blot analysis
# [3] = molecular target: T1, Eukaryotic elongation factor 2 kinase (Homo sapiens); test: Inhibition of eEF2K in human MDA-MB-231 cells assessed as decrease in phosphorylation of eEF2 at Thr56 residue at 5 uM incubated for 2 hrs by western blot analysis
SMILES,inhibition [1],inhibition [2],inhibition [3]
CCc1cccc2c3c([nH]c12)C(CC)(CC(=O)N1CCCCC1)OCC3 (stereo not given),Active,–,–
CCc1cccc2c3c([nH]c12)C(CC)(CC(=O)N1CCN(C)CC1)OCC3 (stereo not given),–,Active,Active
CCc1cccc2c3c([nH]c12)C(CC)(CC(=O)NCCN1CCCCC1)OCC3 (stereo not given),–,Active,Active
